Measurements reported in PubChem BioAssay AID288 (DTP/NCI, 2004).
Where “and” joins values, the source holds several entries; their conditions need not be identical. Equal values may be shown once. Inconclusive results are not listed.

Tested on: BDF1 mice, M5076 sarcoma s.c., survival/tumor T/C
Assay: NCI In Vivo Anticancer Drug Screen. Data for tumor model Sarcoma M5076 (subcutaneous) in B6D2F1 (BDF1) mice
Procedure: The antitumor activity of compounds was measured in mice bearing transplantable tumors. Survival or tumor size were measured and the results are expressed as the measurement made in the treated group (T) divided by the measurement made in the vehicle treated control group (C). The tumor model used in this assay is Sarcoma M5076 (subcutaneous) in B6D2F1 (BDF1) mice

[1] = endpoint: median survival time, dose: 50.0 mg/kg/injection, schedule: Q01DX009 (ip), vehicle: saline with Tween-80, higher = longer survival

For `Nc1nc(N)c2c(ccc3nccc32)[nH]1`, the T/C (endpoint: median survival time, dose: 12.5 mg/kg/injection, schedule: Q01DX009 (ip), vehicle: saline with Tween-80, higher = longer survival) was 86 % of control, the T/C (endpoint: median survival time, dose: 25.0 mg/kg/injection, schedule: Q01DX009 (ip), vehicle: saline with Tween-80, higher = longer survival) was 92 % of control and the T/C (endpoint: median tumor weight (est.), dose: 12.5 mg/kg/injection, schedule: Q01DX009 (ip), vehicle: saline with Tween-80, higher = larger tumour) was 80 % of control. For the same compound, the T/C (endpoint: median tumor weight (est.), dose: 25.0 mg/kg/injection, schedule: Q01DX009 (ip), vehicle: saline with Tween-80, higher = larger tumour) was 62 % of control.
For `O=P1(N(CCCl)CCCl)NCCCO1` (configuration not stated), the T/C (endpoint: median survival time, dose: 6.25 mg/kg/injection, schedule: Q04DX006 (ip), vehicle: saline, higher = longer survival) was 100 % of control, the T/C (endpoint: median survival time, dose: 12.5 mg/kg/injection, schedule: Q02DX033 (ip), vehicle: saline, higher = longer survival) was 121 % of control and the T/C (endpoint: median survival time, dose: 12.5 mg/kg/injection, schedule: Q04DX006 (ip), vehicle: saline, higher = longer survival) was 108 % of control. For the same compound, the T/C (endpoint: median survival time, dose: 25.0 mg/kg/injection, schedule: Q02DX033 (ip), vehicle: saline, higher = longer survival) was 214 % of control, the T/C (endpoint: median survival time, dose: 25.0 mg/kg/injection, schedule: Q04DX006 (ip), vehicle: saline, higher = longer survival) was 124 % of control and the T/C (endpoint: median survival time, dose: 50.0 mg/kg/injection, schedule: Q04DX006 (ip), vehicle: saline, higher = longer survival) was 121 % of control. The T/C (endpoint: median survival time, dose: 64.8 mg/kg/injection, schedule: Q01DX001 (ip), vehicle: saline, higher = longer survival) was 101 % of control and the T/C (endpoint: median survival time, dose: 210.0 mg/kg/injection, schedule: Q01DX001 (ip), vehicle: saline, higher = longer survival) was 155 % of control and 157 % of control.
`O=C(O)c1c(CS(F)(F)(F)(F)F)cc(=O)oc1CS(F)(F)(F)(F)F` was tested, and the T/C [1] was 98 % of control.
For `OC(C1CO1)C(O)C1CO1` (configuration not stated), the T/C (endpoint: mean tumor weight, dose: 1.0 mg/kg/injection, schedule: Q02DX011 (ip), vehicle: saline, higher = larger tumour) was 58 % of control, the T/C (endpoint: mean tumor weight, dose: 2.0 mg/kg/injection, schedule: Q02DX011 (ip), vehicle: saline, higher = larger tumour) was 10 % of control and 12 % of control and the T/C (endpoint: median survival time, dose: 2.0 mg/kg/injection, schedule: Q01DX009 (ip), vehicle: saline, higher = longer survival) was 122 % of control. The T/C (endpoint: median tumor weight (est.), dose: 1.0 mg/kg/injection, schedule: Q02DX011 (ip), vehicle: saline, higher = larger tumour) was 67 % of control, the T/C (endpoint: median tumor weight (est.), dose: 2.0 mg/kg/injection, schedule: Q01DX009 (ip), vehicle: saline, higher = larger tumour) was 29 % of control and the T/C (endpoint: median tumor weight (est.), dose: 2.0 mg/kg/injection, schedule: Q02DX011 (ip), vehicle: saline, higher = larger tumour) was 1 % of control and 8 % of control.
With `COC(=O)c1csc(C2OC(CO)C(O)C2O)n1` (configuration not stated) the T/C (endpoint: median survival time, dose: 50.0 mg/kg/injection, schedule: Q01DX009 (ip), vehicle: saline, higher = longer survival) was 98 % of control, the T/C (endpoint: median survival time, dose: 100.0 mg/kg/injection, schedule: Q01DX009 (ip), vehicle: saline, higher = longer survival) was 100 % of control and the T/C (endpoint: median survival time, dose: 200.0 mg/kg/injection, schedule: Q01DX009 (ip), vehicle: saline, higher = longer survival) was 100 % of control. The T/C (endpoint: median tumor weight (est.), dose: 50.0 mg/kg/injection, schedule: Q01DX009 (ip), vehicle: saline, higher = larger tumour) was 61 % of control, the T/C (endpoint: median tumor weight (est.), dose: 100.0 mg/kg/injection, schedule: Q01DX009 (ip), vehicle: saline, higher = larger tumour) was 77 % of control and the T/C (endpoint: median tumor weight (est.), dose: 200.0 mg/kg/injection, schedule: Q01DX009 (ip), vehicle: saline, higher = larger tumour) was 85 % of control.
In the case of `C[C@@]12C(=O)OC(=O)[C@]1(C)[C@H]1CC[C@@H]2O1`, the T/C (endpoint: median survival time, dose: 0.1 mg/kg/injection, schedule: Q01DX009 (ip), vehicle: acetone, higher = longer survival) is reported as 94 % of control, the T/C (endpoint: median survival time, dose: 0.2 mg/kg/injection, schedule: Q01DX009 (ip), vehicle: acetone, higher = longer survival) is reported as 106 % of control and the T/C (endpoint: median survival time, dose: 0.4 mg/kg/injection, schedule: Q01DX009 (ip), vehicle: acetone, higher = longer survival) is reported as 101 % of control. The T/C (endpoint: median survival time, dose: 0.8 mg/kg/injection, schedule: Q01DX009 (ip), vehicle: acetone, higher = longer survival) was 89 % of control, the T/C (endpoint: median tumor weight (est.), dose: 0.1 mg/kg/injection, schedule: Q01DX009 (ip), vehicle: acetone, higher = larger tumour) was 117 % of control and the T/C (endpoint: median tumor weight (est.), dose: 0.2 mg/kg/injection, schedule: Q01DX009 (ip), vehicle: acetone, higher = larger tumour) was 64 % of control. For the same compound, the T/C (endpoint: median tumor weight (est.), dose: 0.4 mg/kg/injection, schedule: Q01DX009 (ip), vehicle: acetone, higher = larger tumour) was 109 % of control and the T/C (endpoint: median tumor weight (est.), dose: 0.8 mg/kg/injection, schedule: Q01DX009 (ip), vehicle: acetone, higher = larger tumour) was 90 % of control.
`COc1cc(/C=C2\SC(=S)N(c3ccc(Cl)c(Cl)c3)C2=O)ccc1O` was tested, and the T/C [1] was 90 % of control, the T/C (endpoint: median survival time, dose: 100.0 mg/kg/injection, schedule: Q01DX009 (ip), vehicle: saline with Tween-80, higher = longer survival) was 94 % of control and the T/C (endpoint: median tumor weight (est.), dose: 50.0 mg/kg/injection, schedule: Q01DX009 (ip), vehicle: saline with Tween-80, higher = larger tumour) was 105 % of control. The T/C (endpoint: median tumor weight (est.), dose: 100.0 mg/kg/injection, schedule: Q01DX009 (ip), vehicle: saline with Tween-80, higher = larger tumour) was 117 % of control.
